Reference: patent publication US6316437A, “Spirohydantoin compounds and uses thereof” (Merck & Co., Inc., priority 2000, dated 2001)
Where a name gives a salt, the structure may show the parent alone. Read-outs that look alike come from different tables or passages of the source.

Tests used:
[1] = biological target: T1, human alpha 1a adrenergic receptor (Homo sapiens, UniProt P35348); assay: Alpha 1a Adrenergic Receptor Binding (competition binding, [125I]-HEAT); settings: human alpha 1a membranes, [125I]-HEAT competition, room temperature, one hour
T1 sequence (P35348 1-466): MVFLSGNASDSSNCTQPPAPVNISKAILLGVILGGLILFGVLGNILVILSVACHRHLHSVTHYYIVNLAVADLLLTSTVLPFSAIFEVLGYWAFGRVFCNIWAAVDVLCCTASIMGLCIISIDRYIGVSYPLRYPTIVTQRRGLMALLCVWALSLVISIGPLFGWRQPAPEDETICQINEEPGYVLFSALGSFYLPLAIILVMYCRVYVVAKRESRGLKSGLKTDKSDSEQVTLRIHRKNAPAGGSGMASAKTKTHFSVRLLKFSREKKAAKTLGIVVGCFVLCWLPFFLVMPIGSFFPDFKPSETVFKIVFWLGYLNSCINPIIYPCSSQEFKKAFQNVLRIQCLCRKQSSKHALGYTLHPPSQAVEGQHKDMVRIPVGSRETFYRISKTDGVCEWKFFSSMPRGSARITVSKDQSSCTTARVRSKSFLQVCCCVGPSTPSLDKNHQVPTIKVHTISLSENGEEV
Description: Screening Assay: Alpha 1a Adrenergic Receptor Binding
Membranes prepared from the stably transfected human alpha 1a cell line (ATCC CRL 11140) were used to identify compounds that bind to the human alpha 1a adrenergic receptor. These competition binding reactions (total volume=200 μl) contained 50 mM Tris-HCl pH. 7.4, 5 mM EDTA, 150 mM NaCl, 100 pM [^125 I]-HEAT, membranes prepared from the alpha 1a cell line and increasing amounts of unlabeled ligand. Reactions were incubated at room temperature for one hour with shaking. Reactions were filtered onto Whatman GF/C glass fiber filters with a Inotec 96 well cell harvester. Filters were washed three times with ice cold buffer and bound radioactivity was determined (Ki).

[2] = biological target: T2, human alpha 1b adrenergic receptor (Homo sapiens, UniProt P35368); assay: Selective Binding Assay, alpha 1b (competition binding, [125I]-HEAT); settings: alpha 1a versus alpha 1b, [125I]-HEAT competition binding
T2 construct: host or cells: stably transfected cell line
T2 sequence (P35368 1-520): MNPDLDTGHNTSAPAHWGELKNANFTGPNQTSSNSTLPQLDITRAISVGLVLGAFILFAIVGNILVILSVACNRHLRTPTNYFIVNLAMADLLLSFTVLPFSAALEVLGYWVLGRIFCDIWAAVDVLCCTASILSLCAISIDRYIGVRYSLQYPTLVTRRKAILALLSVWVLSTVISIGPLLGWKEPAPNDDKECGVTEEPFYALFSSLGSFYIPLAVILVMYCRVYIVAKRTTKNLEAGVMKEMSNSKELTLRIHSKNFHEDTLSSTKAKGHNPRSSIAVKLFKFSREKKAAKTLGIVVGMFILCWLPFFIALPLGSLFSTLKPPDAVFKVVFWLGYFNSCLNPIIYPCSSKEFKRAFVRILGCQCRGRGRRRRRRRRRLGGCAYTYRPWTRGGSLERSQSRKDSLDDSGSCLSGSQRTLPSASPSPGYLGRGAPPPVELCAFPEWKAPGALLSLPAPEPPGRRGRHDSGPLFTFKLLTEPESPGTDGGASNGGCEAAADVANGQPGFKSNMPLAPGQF
Description: (§1) Membranes prepared from stably transfected human alpha 1d and alpha 1b cell lines (ATCC CRL 11138 and CRL 11139, respectively) were used to identify compounds that selectively bind to the human alpha 1a adrenergic receptor. These competition binding reactions (total volume=200 μl) contained 50 mM Tris-HCl pH. 7.4, 5 mM EDTA, 150 mM NaCl, 100 pM [^125 I]-HEAT, membranes prepared from cell lines transfected with the respective alpha 1 subtype expression plasmid and increasing amounts of unlabeled ligand. Reactions were incubated at room temperature for one hour with shaking. Reactions were filtered onto Whatman GF/C glass fiber filters with a Inotec 96 well cell harvester. Filters were washed three times with ice cold buffer and bound radioactivity was determined (Ki).

[3] = biological target: T3, human alpha 1d adrenergic receptor (Homo sapiens, UniProt P25100); assay: Selective Binding Assay, alpha 1d (competition binding, [125I]-HEAT); settings: alpha 1a versus alpha 1d, [125I]-HEAT competition binding
T3 construct: host or cells: stably transfected cell line
T3 sequence (P25100 1-572): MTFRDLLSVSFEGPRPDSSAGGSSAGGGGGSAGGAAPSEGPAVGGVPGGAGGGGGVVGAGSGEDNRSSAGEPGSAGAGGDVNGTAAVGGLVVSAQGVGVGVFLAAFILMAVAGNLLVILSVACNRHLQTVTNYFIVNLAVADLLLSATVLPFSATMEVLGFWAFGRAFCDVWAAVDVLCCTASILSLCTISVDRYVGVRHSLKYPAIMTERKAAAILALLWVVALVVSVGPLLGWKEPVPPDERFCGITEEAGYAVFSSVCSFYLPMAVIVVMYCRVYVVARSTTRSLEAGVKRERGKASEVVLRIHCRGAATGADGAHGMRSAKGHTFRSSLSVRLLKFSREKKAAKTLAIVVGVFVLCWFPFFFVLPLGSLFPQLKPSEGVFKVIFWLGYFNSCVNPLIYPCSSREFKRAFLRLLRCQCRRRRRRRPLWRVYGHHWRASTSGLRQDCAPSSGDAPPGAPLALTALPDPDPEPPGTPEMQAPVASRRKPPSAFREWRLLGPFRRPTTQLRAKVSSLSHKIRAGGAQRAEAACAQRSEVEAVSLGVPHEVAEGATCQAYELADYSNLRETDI
Description: as §1

| Ki ([1]; read-out: alpha 1a Ki) [nM] | SMILES | Ki ([1]; alpha 1a Ki) [nM] | also measured |
| --- | --- | --- | --- |
| – | O=C1NC2(CCc3cc(F)ccc32)C(=O)N1CCCN1CCC2(CCc3ccccc32)CC1 (racemic) [Compound 12, (+/ -)-1-{3-{Spiro[indano-1,4'-piperidin]-1-yl}propyl}-5'-fluoro-spiro[imidazoline-4,1'indan]-2,5-dione hydrochloride] | < 10 | – |
| – | Cl.O=C1Nc2ccc(Cl)cc2C2(CCN(CCCN3C(=O)NC4(CCc5cc(F)ccc54)C3=O)CC2)O1 (racemic) [Compound 15, (+/ -)-1-{3-{6-Chlorospiro[4H-3,1-benzoxazine-4,4'-piperidin]-2(1H)-on-1'-yl}propyl}-5'-fluoro-spiro[imidazolidine-4,1'indan]-2,5-dione hydrochloride] | < 100 | fold more selective in binding to alpha 1a receptors versus binding to the alpha 1b receptors [2]: at least 10 fold; fold more selective in binding to alpha 1a receptors versus binding to the alpha 1d receptors [3]: at least 10 fold |
| < 10 | N#Cc1cc(F)ccc1C1CCN(CCCN2C(=O)NC3(CCc4cc(F)c(F)cc43)C2=O)CC1 (racemic) [Compound 18, (+/ -)-1-{3-[4-(4-Fluoro-2-cyanophenyl)piperidin-1-yl]propyl}-5',6'-difluoro-spiro[imidazolidine-4,1'indan]-2,5-dione hydrochloride] | – | – |
| < 10 | N#Cc1cc(F)ccc1C1CCN(CCCN2C(=O)NC3(CCc4cc(Cl)ccc43)C2=O)CC1 (racemic) [Compound 23, (+/ -)-1-{3-[4-(4-Fluoro-2-cyanophenyl)piperidin-1-yl]propyl}-5'-chloro-spiro[imidazolidine-4,1'indan]-2,5-dione hydrochloride] | – | – |
| – | O=C1Nc2ccc(Cl)cc2C2(CCN(CCCN3C(=O)NC4(CCc5cc(Cl)ccc54)C3=O)CC2)O1 (racemic) [Compound 29, (+/ -)-1-{3-{6-Chlorospiro[4H-3,1-benzoxazine-4,4'-piperidin]-2(1H)-on-1'-yl}propyl}-5'-chloro-spiro[imidazolidine-4,1'indan]-2,5-dione hydrochloride] | < 10 | – |
| – | Cc1ccc2c(c1)CCC21NC(=O)N(CCCN2CCC3(CCc4ccccc43)CC2)C1=O (racemic) [Compound 33, (+/ -)-1-{3-{Spiro[indano-1,4'-piperidin]-1-yl}propyl}-5'-methyl-spiro[imidazolidine-4,1'indan]-2,5-dione hydrochloride] | < 10 | – |
| < 10 | Cc1ccc2c(c1)CCC21NC(=O)N(CCCN2CCC(c3ccc(F)cc3C#N)CC2)C1=O (racemic) [Compound 36, (+/ -)-1-{3-[4-(4-Fluoro-2-cyanophenyl)piperidin-1-yl]propyl}3-5'-methyl-spiro[imidazolidine-4,1'indan]-2,5-dione hydrochloride] | – | – |
| < 10 | N#Cc1cc(F)ccc1C1CCN(CCCN2C(=O)NC3(CCSc4cc(F)ccc43)C2=O)CC1 (racemic) [Compound 45, (+/ -)-1'-{3-[4-(4-Fluoro-2-cyano-phenyl)piperidin-1-yl]propyl}-7-fluoro-2,3-dihydro-spiro[4H-1-benzothiopyran-4,4'-imidazolidine]-2',5'-dione hydrochloride] | – | – |
| – | Cl.N#CC1(c2ccccc2)CCN(CCCN2C(=O)NC3(CCCCc4ccc(F)cc43)C2=O)CC1 (racemic) [Compound 48, (+/ -)-1'-[3-(4-Cyano-4-phenylpiperidin-1-yl)propyl]-3-fluoro-6,7,8,9-tetrahydro-spiro[5H-benzocycloheptene-5,4'-imidazolidine]-2',5'-dione hydrochloride] | – | fold more selective in binding to alpha 1a receptors versus binding to the alpha 1b receptors [2]: at least 10 fold; fold more selective in binding to alpha 1a receptors versus binding to the alpha 1d receptors [3]: at least 10 fold |
| < 10 | N#Cc1cc(F)ccc1C1CCN(CCCN2C(=O)NC3(CCCOc4cc(F)ccc43)C2=O)CC1 (racemic) [Compound 50, (+/ -)-1-{3-[4-(4-fluoro-2-cyano-phenyl)piperidin-1-yl]propyl}-8-fluoro-2,3,4,5-tetrahydro-spiro[1-benzoxepin-5(2H),4'-imidazolidine]-2',5'-dione hydrochloride] | – | – |
| – | CC(CCN1C(=O)NC2(CCc3cc(Cl)ccc32)C1=O)N1CCC(c2ccc(F)cc2)CC1.Cl (racemic) [Compound 51, (+/ -)-1-{3-[4-(4-fluorophenyl)piperidin-1-yl]butyl}-5'-chloro-spiro[imidazolidine-4,1'indan]-2,5-dione hydrochloride] | – | fold more selective in binding to alpha 1a receptors versus binding to the alpha 1b receptors [2]: at least 10 fold; fold more selective in binding to alpha 1a receptors versus binding to the alpha 1d receptors [3]: at least 10 fold |
| – | Cc1ccc2c(c1)CCC21NC(=O)N(CCCN2CCC3(CCc4ccccc43)CC2)C1=O (single isomer, unassigned; (+)) [Compound 35, (+)-1-{3-{spiro[indano-1,4'-piperidin]-1-yl}propyl}-5'-methyl-spiro[imidazolidine-4,1'indan]-2,5-dione] | < 10 | – |
| < 10 | O=C1NC2(CCOc3cc(F)ccc32)C(=O)N1CCCN1CCC(c2ccc(F)cc2)CC1 (single isomer, unassigned; (+)) [Compound 42, (+)-1'-{3-[4-(4-fluorophenyl)piperidin-1-yl]propyl}-7-fluoro-2,3-dihydro-spiro[4H-1-benzopyran-4,4'-imidazolidine]-2',5'-dione] | – | – |
| – | N#CC1(c2ccccc2)CCN(CCCN2C(=O)NC3(CCc4cc(F)ccc43)C2=O)CC1 (stereo not shown) [Compound 10] | < 10 | – |
| – | O=C1NC2(CCc3cc(F)ccc32)C(=O)N1CCCN1CCC2(CCc3ccccc32)CC1 (stereo not shown) [Compound 14] | < 100 | – |
| < 10 | N#Cc1cc(F)ccc1C1CCN(CCCN2C(=O)NC3(CCc4cc(F)c(F)cc43)C2=O)CC1 (stereo not shown) [Compound 19] | – | – |
| < 10 | N#Cc1cc(F)ccc1C1CCN(CCCN2C(=O)NC3(CCc4cc(Cl)ccc43)C2=O)CC1 (stereo not shown) [Compound 24] | – | – |
| – | O=C1NC2(CCc3cc(Cl)ccc32)C(=O)N1CCCN1CCC2(CCc3ccccc32)CC1 (stereo not shown) [Compound 28] | < 10 | – |
